As a reminder, the IC50 is the concentration that inhibits the measured activity by half.

Consider 18 compounds from patent US20180194762A1 (Pharmacyclics LLC, priority 2017, published 2018).

What all share (type): biochemical
One assay concerns the target T1, panel of kinases (Homo sapiens, UniProt P51813).
T1 sequence (P51813 1-675): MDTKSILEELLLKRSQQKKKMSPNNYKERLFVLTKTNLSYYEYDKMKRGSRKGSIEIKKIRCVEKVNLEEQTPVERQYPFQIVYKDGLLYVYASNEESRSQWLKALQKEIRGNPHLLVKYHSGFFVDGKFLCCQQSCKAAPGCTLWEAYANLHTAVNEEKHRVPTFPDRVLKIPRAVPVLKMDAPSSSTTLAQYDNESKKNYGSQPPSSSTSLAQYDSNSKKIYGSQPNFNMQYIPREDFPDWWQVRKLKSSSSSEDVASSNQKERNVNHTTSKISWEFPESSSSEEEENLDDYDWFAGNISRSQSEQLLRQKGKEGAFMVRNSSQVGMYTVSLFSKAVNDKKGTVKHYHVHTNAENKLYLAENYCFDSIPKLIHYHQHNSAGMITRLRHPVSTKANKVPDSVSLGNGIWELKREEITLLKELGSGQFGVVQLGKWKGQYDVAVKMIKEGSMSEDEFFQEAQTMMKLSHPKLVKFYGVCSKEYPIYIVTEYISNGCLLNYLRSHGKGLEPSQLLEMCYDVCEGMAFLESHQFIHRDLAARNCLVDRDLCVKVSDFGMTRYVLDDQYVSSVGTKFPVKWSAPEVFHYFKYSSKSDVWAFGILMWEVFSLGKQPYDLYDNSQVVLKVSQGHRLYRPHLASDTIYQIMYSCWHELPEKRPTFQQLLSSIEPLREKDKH
As to the kind of experiment: Inhibition of a panel of kinases (in vitro HotSpot kinase assay, 33P-ATP, 1 μM ATP), other kinases. Particulars: BMX wild-type, read-out: BMX-WT IC50. As for the experimental part: Example 63: Inhibition of a Panel of Kinases The degree of inhibition of a panel of kinases is determined using the in vitro HotSpot kinase assay (purified enzymes, ^33P-ATP, an appropriate substrate and 1 μM ATP).

The target of another assay is T2, Btk (Homo sapiens, UniProt Q06187).
T2 construct: purified from insect cells as a full-length construct containing a N-terminal 6X-His tag; His6 (N); made in house; host or cells: insect cells (Method C)
T2 sequence (Q06187 whole entry): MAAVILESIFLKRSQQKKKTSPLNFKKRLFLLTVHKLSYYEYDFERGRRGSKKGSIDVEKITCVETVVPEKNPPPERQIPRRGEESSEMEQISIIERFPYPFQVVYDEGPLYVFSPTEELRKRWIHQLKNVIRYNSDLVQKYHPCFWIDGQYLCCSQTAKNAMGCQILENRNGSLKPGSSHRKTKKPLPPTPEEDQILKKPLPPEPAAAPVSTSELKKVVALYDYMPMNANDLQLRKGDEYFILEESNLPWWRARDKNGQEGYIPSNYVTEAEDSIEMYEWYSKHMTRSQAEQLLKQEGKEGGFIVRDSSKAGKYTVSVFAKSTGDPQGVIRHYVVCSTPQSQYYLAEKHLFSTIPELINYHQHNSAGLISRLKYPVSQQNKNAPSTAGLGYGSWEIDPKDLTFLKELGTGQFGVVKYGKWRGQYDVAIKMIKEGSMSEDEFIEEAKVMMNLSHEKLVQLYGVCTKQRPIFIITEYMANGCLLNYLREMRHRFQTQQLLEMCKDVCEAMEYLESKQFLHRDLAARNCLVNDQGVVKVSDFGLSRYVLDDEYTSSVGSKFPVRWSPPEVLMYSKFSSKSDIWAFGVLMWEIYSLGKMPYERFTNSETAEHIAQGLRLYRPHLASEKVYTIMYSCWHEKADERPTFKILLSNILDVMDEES
The experiment in a line: Btk in vitro inhibitory activity (one of Method A TR-FRET, Method B electrophoretic mobility shift, Method C radiometric filter binding). Particulars: wild-type Btk; read-out: Btk-WT IC50. The method, boiled down: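 Method A: TR-FRET with 0.5 nM Btk at [ATP]=Km, EDTA-quenched, 665/615 nm ratio; Ki(app) converted to IC50. Method B: 1 nM full-length His6 human BTK, 1 μM FAM peptide, pH 7.5, mobility-shift product/sum ratio, 12-point 4-parameter fit. Method C: radiometric filter binding, 8 nM His-tagged BTK, 0.2 mg/mL poly-Glu-Tyr.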
(In EMSA bound probe runs differently from free probe, usually more slowly.)

In a further assay the target is T3, TEC (Homo sapiens, UniProt P42680).
T3 sequence (P42680 1-631): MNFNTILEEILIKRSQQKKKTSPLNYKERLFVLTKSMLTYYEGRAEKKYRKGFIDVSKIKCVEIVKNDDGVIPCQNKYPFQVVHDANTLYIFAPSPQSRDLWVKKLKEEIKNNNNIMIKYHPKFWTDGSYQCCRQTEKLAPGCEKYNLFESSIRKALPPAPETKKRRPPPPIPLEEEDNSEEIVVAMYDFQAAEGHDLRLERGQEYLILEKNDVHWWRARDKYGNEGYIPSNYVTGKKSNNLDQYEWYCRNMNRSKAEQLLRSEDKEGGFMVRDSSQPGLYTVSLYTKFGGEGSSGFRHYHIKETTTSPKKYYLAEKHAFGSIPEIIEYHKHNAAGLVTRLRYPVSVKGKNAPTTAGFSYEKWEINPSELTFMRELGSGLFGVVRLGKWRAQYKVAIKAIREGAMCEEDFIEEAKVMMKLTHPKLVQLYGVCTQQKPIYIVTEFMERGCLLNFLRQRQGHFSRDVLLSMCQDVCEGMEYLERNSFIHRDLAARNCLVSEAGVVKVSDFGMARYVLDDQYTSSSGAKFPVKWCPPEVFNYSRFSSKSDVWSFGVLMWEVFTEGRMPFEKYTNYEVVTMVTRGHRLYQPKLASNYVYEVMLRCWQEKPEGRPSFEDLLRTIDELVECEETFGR
As to the kind of experiment: Inhibition of a panel of kinases (in vitro HotSpot kinase assay, 33P-ATP, 1 μM ATP). Particulars: for IC50: HotSpot kinase assay, 1 μM ATP. The method, boiled down:
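Degree of kinase inhibition is determined in vitro using isolated enzymes, a matched substrate and radiolabelled ATP (1 μM).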

Consider `Cc1c(NC(=O)c2noc(C(C)(C)C)n2)cccc1-c1ccnc2[nH]nc(N[C@@H]3CCNC3)c12` [Example 266, 5-tert-butyl-N-[2-methyl-3-(3-{[(3R)-pyrrolidin-3-yl]amino}-1H-pyrazolo[3,4-b]pyridin-4-yl)phenyl]-1,2,4-oxadiazole-3-carboxamide], for which, at panel of kinases, the IC50 was found to be 5.04 µM. Turning to `CC(C)(C)c1nc(C(=O)NCc2ccc(-c3ccnc4[nH]nc(C[C@H]5CCNC5)c34)cc2F)no1` [Example 274, (R)-5-tert-butyl-N-[(2-fluoro-4-{3-[(pyrrolidin-3-yl)methyl]-1H-pyrazolo[3,4-b]pyridin-4-yl}phenyl)methyl]-1,2,4-oxadiazole-3-carboxamide], the IC50 on Btk was 0.147 µM; on panel of kinases, 8.43 µM.

Take `C[C@@H](NC(=O)c1nc(C(C)(C)C)no1)c1ccc(-c2ccnc3[nH]nc(NC4CCOC4)c23)cc1` (stereo partly drawn) [Example 217, 3-tert-butyl-N-[(1R)-1-(4-{3-[(oxolan-3-yl)amino]-1H-pyrazolo[3,4-b]pyridin-4-yl}phenyl)ethyl]-1,2,4-oxadiazole-5-carboxamide]: the IC50 at Btk amounted to 0.00645 µM; on panel of kinases it was 6.81 µM. `C[C@@H]1[C@H](Nc2n[nH]c3nccc(-c4ccc(CNC(=O)c5cc(C(C)(C)N)on5)c(F)c4)c23)CCCN1C(=O)N(C)C` [Example 317, (2R,3R)-3-({4-[4-({[5-(2-aminopropan-2-yl)-1,2-oxazole-3-carbonyl]amino}methyl)-3-fluorophenyl]-1H-pyrazolo[3,4-b]pyridin-3-yl}amino)-N,N,2-trimethylpiperidine-1-carboxamide]: at panel of kinases, the IC50 worked out at 6.55 µM. With `O=C(NCc1ccc(-c2ccnc3[nH]nc(N[C@@H]4CCNC4)c23)cc1F)c1ccc2scnc2c1` [Example 352, (R)-N-[(2-fluoro-4-{3-[(pyrrolidin-3-yl)amino]-1H-pyrazolo[3,4-b]pyridin-4-yl}phenyl)methyl]-1,3-benzothiazole-5-carboxamide], the IC50 was 0.108 µM at Btk and 1.53 µM at panel of kinases. In the case of `C[C@@H](NC(=O)c1cc(C(C)(C)O)on1)c1ccc(-c2ccnc3[nH]nc(NC4CCCCC4)c23)cc1` [Example 399, N-[(1R)-1-{4-[3-(cyclohexylamino)-1H-pyrazolo[3,4-b]pyridin-4-yl]phenyl}ethyl]-5-(2-hydroxypropan-2-yl)-1,2-oxazole-3-carboxamide], the IC50 is 9.27 µM against TEC and 4.32 µM on panel of kinases.

For `C[C@@H]1[C@H](Nc2n[nH]c3nccc(-c4ccc(CNC(=O)c5cc(C(C)(C)O)on5)c(F)c4)c23)CCCN1C(=O)N(C)C` [Example 316, (2R,3R)-3-({4-[3-fluoro-4-({[5-(2-hydroxypropan-2-yl)-1,2-oxazole-3-carbonyl]amino}methyl)phenyl]-1H-pyrazolo[3,4-b]pyridin-3-yl}amino)-N,N,2-trimethylpiperidine-1-carboxamide], at panel of kinases, the IC50 worked out at 8.66 µM. With `O=C(NCc1ccc(-c2ccnc3[nH]nc(NC4CCNC4)c23)cc1F)c1ccc2c(c1)OCCCO2` (stereo not shown) [Example 350, N-[(2-fluoro-4-{3-[(pyrrolidin-3-yl)amino]-1H-pyrazolo[3,4-b]pyridin-4-yl}phenyl)methyl]-3,4-dihydro-2H-1,5-benzodioxepine-7-carboxamide], the IC50 turned out to be 0.719 µM at Btk and 7 µM on panel of kinases. As to `C[C@@H](NC(=O)c1cc(C(C)(C)O)on1)c1ccc(-c2ccnc3[nH]nc(NC4CCOC4)c23)cc1` (stereo partly drawn) [Example 398, 5-(2-hydroxypropan-2-yl)-N-[(1R)-1-(4-{3-[(oxolan-3-yl)amino]-1H-pyrazolo[3,4-b]pyridin-4-yl}phenyl)ethyl]-1,2-oxazole-3-carboxamide], the IC50 turned out to be 0.625 µM at Btk and 5.73 µM on panel of kinases. For `O=C(NCc1ccc(-c2ccnc3[nH]nc(N[C@@H]4CCNC4)c23)cc1F)c1cc(-c2ccccc2)on1` [Example 344, (R)-N-[(2-fluoro-4-{3-[(pyrrolidin-3-yl)amino]-1H-pyrazolo[3,4-b]pyridin-4-yl}phenyl)methyl]-5-phenyl-1,2-oxazole-3-carboxamide], the IC50 on panel of kinases came to 5.67 µM. Regarding `CC(C)(C)c1ccc(C(=O)NCc2ccc(-c3ccnc4[nH]nc(NC5CCNC5)c34)cn2)cc1` (stereo not shown) [Example 268, 4-tert-butyl-N-[(5-{3-[(pyrrolidin-3-yl)amino]-1H-pyrazolo[3,4-b]pyridin-4-yl}pyridin-2-yl)methyl]benzamide], the IC50 on TEC came to 4.47 µM; on panel of kinases, 3.02 µM.

Turning to `CC(C)(C)c1nc(C(=O)NCc2ccc(-c3ccnc4[nH]nc(C5CCNC5)c34)cc2F)no1` (stereo not shown) [Example 278, 5-tert-butyl-N-({2-fluoro-4-[3-(pyrrolidin-3-yl)-1H-pyrazolo[3,4-b]pyridin-4-yl]phenyl}methyl)-1,2,4-oxadiazole-3-carboxamide], the results for the IC50 at Btk and at panel of kinases were 0.0935 µM and 7.86 µM, respectively.

`CC(C)c1cc(C(=O)NCc2ccc(-c3ccnc4[nH]nc(N[C@@H]5CCCN(C(=O)N(C)C)[C@@H]5C)c34)cc2F)no1` [Example 305, (2R,3R)-3-({4-[3-fluoro-4-({[5-(propan-2-yl)-1,2-oxazole-3-carbonyl]amino}methyl)phenyl]-1H-pyrazolo[3,4-b]pyridin-3-yl}amino)-N,N,2-trimethylpiperidine-1-carboxamide]: the half-inhibitory concentration (IC50) on Btk was determined as 0.677 µM; on panel of kinases, 9.58 µM. For the compound `C[C@@H](NC(=O)c1cc(C(C)(C)O)on1)c1ccc(-c2ccnc3[nH]nc(NC4CCS(=O)(=O)CC4)c23)cc1` [Example 385, N-[(1R)-1-(4-{3-[(1,1-dioxo-1λ^6-thian-4-yl)amino]-1H-pyrazolo[3,4-b]pyridin-4-yl}phenyl)ethyl]-5-(2-hydroxypropan-2-yl)-1,2-oxazole-3-carboxamide], the IC50 at panel of kinases is 9.78 µM.

Turning to `C[C@@H](NC(=O)c1cc(C(C)(C)O)on1)c1ccc(-c2ccnc3[nH]nc(NC4CCOCC4)c23)cc1` [Example 400, 5-(2-hydroxypropan-2-yl)-N-[(1R)-1-(4-{3-[(oxan-4-yl)amino]-1H-pyrazolo[3,4-b]pyridin-4-yl}phenyl)ethyl]-1,2-oxazole-3-carboxamide], the IC50 on panel of kinases amounted to 5.2 µM. On the same count and under the same terms, as for `Cc1nc(C(=O)NCc2ccc(-c3ccnc4[nH]nc(N[C@@H]5CC[C@H](C)N(C(=O)N(C)C)C5)c34)cc2F)oc1C` [Example 194, (2S,5R)-5-{[4-(4-{[(4,5-dimethyl-1,3-oxazole-2-carbonyl)amino]methyl}-3-fluorophenyl)-1H-pyrazolo[3,4-b]pyridin-3-yl]amino}-N,N,2-trimethylpiperidine-1-carboxamide], the figure is 4.86 µM; as for `CN(C)C(=O)N1CC[C@@H](Nc2n[nH]c3nccc(-c4ccc(CNC(=O)c5cc(Cl)on5)c(F)c4)c23)C1` [Example 343, 5-chloro-N-{[4-(3-{[(3R)-1-(dimethylcarbamoyl)pyrroli-din-3-yl]amino}-1H-pyrazolo[3,4-b]pyridin-4-yl)-2-fluorophenyl]methyl}-1,2-oxazole-3-carboxamide], 1.72 µM. In the case of `OCc1ccc(-c2ccnc3[nH]nc(N[C@H]4CC[C@H](O)CC4)c23)cc1F` [Compound 11], on TEC (ratio of TEC IC50 to Btk IC50 (selectivity)), the TEC/Btk is 10. Also, the IC50 on panel of kinases worked out at 2.58 µM.
